Measurements as given in patent US9937235B2, “Lipidated peptides as anti-obesity agents” (USTAV ORGANICKE CHEMIE A BIOCHEMIE AKADEMIE VED CR, V.V.I, priority 2012, dated 2018).
Where a SMILES comes first, the peptide text is derived from it. [ ]: non-standard residue; d: D form. The star is where a group is joined. 1Nal = N[C@@H](Cc1cccc2ccccc12)C(=O)O; Myristoyl = CCCCCCCCCCCCCC(=O)*; Nle = CCCC[C@H](N)C(=O)O; Octanoyl = CCCCCCCC(=O)*; Dap = NC[C@H](N)C(=O)O

Assays:
fasted C57BL/6 mice [1] = assay: Food intake in fasted mice after ICV administration; type: in vivo; conditions: 4 nmol/mouse; for % control: food intake vs saline
Protocol: Male C57BL/6 mice (An Lab, Prague 4) were bred in the accredited animal facility in the Institute of Organic Chemistry and Biochemistry, Czech Academy of Sciences, Prague, at the Institute of Molecular Genetics, Prague 4, at the temperature of 22±2° C. with access to food and water ad libitum. The day/night cycle was 12/12 hours (light turned on at 6:00 am). Animals were treated according to the Animal Protection Act (Act No. 246/1992). The males were fed standard chow diet St-1 (Mlýn Kocanda, Praha, Czech Republic) which contained 66% saccharides, 25% proteins and 9% lipids with a caloric value of 3.4 kcal/g.
The food was withdrawn 17 hours prior to injection of lipidated peptide and free access to water was maintained. The administration of saline, PrRP or lipidated analogs was performed either by SC injection at doses of 1-10 mg/kg (volume 0.2 ml/mouse), or by ICV using infusion pump (cannulae were inserted into the third brain ventricle 4 days before the experiment following the procedure of Maixnerová et al. (Maixnerová et al., 2011)). The single dose of peptide was 4 nmol/mouse (5 μl/mouse).
Fifteen minutes after the lipidated peptide administration, the mice were given pre-weighed food. The food was then weighed every 30 minutes for 5-10 hours. The administration of every dose was performed at least twice and one group of mice consisted of at least 6 mice. The results were presented as % of food intake as compared with the control group injected with saline.
Statistical evaluation was performed using program Graph-Pad Prism Software (San Diego, Calif., USA), and the one-way ANOVA with a subsequent Dunnettovým post-hoc test. The difference in food intake between mice injected with saline and mice injected with the examined peptide were considered statistically significant at P<0.05.

[2] = test system: MAPK/ERK1/2 signaling pathway in RC-4B/C cells; assay: MAPK/ERK1/2 signaling in RC-4B/C cells (Western blot); type: cell-based, rat; conditions: 10^−6 mol·l^−1, 5 minute incubation
Protocol: RC-4B/C cells, which were used to determine if lipidated PrRP20 analogs are able to initiate the MAPK/ERK1/2 signaling pathway, were grown in 6-well plates up to the optimal density of […]. Seventeen hours before sample harvest, the growth medium was replaced by a serum-free medium lacking epidermal growth factor (EGF). The respective lipidated PrRP analog was added to each well in the final concentration of 10^−6 mol·l^−1. After a 5 minute incubation at 37° C., the plate was placed on ice and each well was rinsed three times with PBS pH 7.4 (137 mmol·l^−1 NaCl, 2.7 mmol·l^−1 KCl, 8 mmol·l^−1 Na2HPO4.2H2O a 1.76 mmol·l^−1 KH2PO4) and cooled to 4° C. […] Samples were collected in at least three independent experiments.
To determine if the lipidated PrRP20 analogs initiated the MAPK/ERK1/2 signaling pathway, Western blot analysis was used. Electrophoresis was performed on 5%/12% polyacrylamide gel in the presence of SDS (SDS-PAGE) on the instrument MiniProtean 3 (BioRad, Herkules, Calif., USA). Samples that were loaded on the gel were first disintegrated by ultrasound, then heated at 100° C. for 2 minutes, and centrifuged for 5 minutes at 500×g at room temperature. […] Electrophoresis was performed at a constant voltage of 100 V for 10 minutes, or for 60 minutes at 150 V.
To show the presence of phosphorylated proteins in the samples, the proteins from the SDS-PAGE gel were transferred to the Immobilon™-P PVDF (polyvinylidene difluoride) membrane (Sigma-Aldrich, USA). The transfer was performed in blotting buffer at pH 8.3 (25 mmol·l^−1 Tris, 192 mmol·l^−1 glycine and 20% methanol) for 20 hours at 4° C. at a constant voltage of 30 V.
After the protein transfer to the PVDF membrane, the membranes were washed for 5 minutes in TBS washing buffer (20 mmol·l^−1 Tris, 140 mmol·l^−1 NaCl and 0.1% Tween-20) and then incubated for 1 hour in blocking buffer (TBS with 5% non-fat milk powder and 5 mmol·l^−1 Na3VO4 and 50 mmol·l^−1 NaF) at room temperature. Further, the membranes were washed three times for 5 minutes using the TBS washing buffer. The membranes were then incubated with the primary antibody against phospho-p44/42 MAPK(Thr202/Tyr204) (Cell Signaling Technology, Beverly, USA) which was diluted in blocking buffer at 1:1000. After the next three washes with the TBS washing buffer for 5 minutes, the membranes were incubated for 1 hour with rabbit secondary antibody labeled with peroxidase (Sigma, St. Louis, USA) which was diluted in blocking buffer at 1:12,000.
The membranes were then washed three times in TBS washing buffer for 5 minutes and then the solution Femto (Pierce SuperSignal, Thermo Fisher Scientific, Rockford, Ill., USA) was applied. The induced chemiluminiscence was detected by a CCD camera (LAS 3000, Fuji Photo Film GmBH, Düsseldorf, Germany).
To assess the initiation of signaling pathways, a densitometric analysis using the program Quantity One (BioRad, Hercules, Calif., USA) was used. For statistical evaluation of the statistically significant response of the cellular signaling, one-way ANOVA with subsequent Dunnett post-hoc test was used. Data was statistically significant at P<0.05.

[3] = biological target: T1, rat PrRP receptor (GPR10) in RC-4B/C cells (Rattus norvegicus, UniProt Q64121); assay: Competitive binding to rat pituitary RC-4B/C cells; conditions: ^125I-rat PrRP31, RC-4B/C cells
T1 construct: host or cells: RC-4B/C rat pituitary cell line
T1 sequence (Q64121 1-370): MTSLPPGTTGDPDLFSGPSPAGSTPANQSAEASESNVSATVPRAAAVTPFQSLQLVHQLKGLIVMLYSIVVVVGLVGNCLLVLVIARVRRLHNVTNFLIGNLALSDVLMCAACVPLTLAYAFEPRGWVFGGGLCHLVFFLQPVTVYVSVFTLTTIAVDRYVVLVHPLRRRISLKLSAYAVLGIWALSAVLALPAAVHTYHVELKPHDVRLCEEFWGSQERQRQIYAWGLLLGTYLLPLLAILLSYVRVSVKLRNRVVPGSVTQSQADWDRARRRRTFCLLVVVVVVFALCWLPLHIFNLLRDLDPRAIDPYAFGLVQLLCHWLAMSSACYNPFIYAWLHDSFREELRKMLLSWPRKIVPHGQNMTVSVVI

fasted C57BL/6 mice [4] = assay: Food intake in fasted mice after SC administration; type: in vivo, mouse; conditions: for food intake / % control: SC administration; for % control: food intake vs saline
How it was run: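 Male C57BL/6 mice, food-deprived 17 h, received saline, PrRP or lipidated analogs either SC at 1-10 mg/kg or ICV into the third ventricle at 4 nmol/mouse.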

[5] = 45 minutes, dose not stated for these substances
[6] = 300 minutes, dose not stated for these substances

% of PrRP31 binding [3] [%] | SMILES | food intake (fasted C57BL/6 mice [1]; 45 minutes) [g] | % control (fasted C57BL/6 mice [1]; 45 minutes) [%] | food intake (fasted C57BL/6 mice [1]; 300 minutes) [g] | % control (fasted C57BL/6 mice [1]; 300 minutes) [%] | ERK signaling [2] | food intake (fasted C57BL/6 mice [4]; 45 minutes, 5 mg/kg) [g] | % control (fasted C57BL/6 mice [4]; 45 minutes, 5 mg/kg) [%] | % control (fasted C57BL/6 mice [4]; 300 minutes, 5 mg/kg) [%] | food intake (fasted C57BL/6 mice [4]; [5]) [g] | % control (fasted C57BL/6 mice [4]; [5]) [%] | food intake (fasted C57BL/6 mice [4]; [6]) [g] | % control (fasted C57BL/6 mice [4]; [6]) [%] | dose dependence of the lowering of food intake (fasted C57BL/6 mice [4]; SC administration, 1, 2, 5 and 10 mg/kg, FIG. 5 and 6) | food intake (fasted C57BL/6 mice [4]; 45 minutes, 10 mg/kg) [g] | % control (fasted C57BL/6 mice [4]; 45 minutes, 10 mg/kg) [%] | food intake (fasted C57BL/6 mice [4]; 300 minutes, 10 mg/kg) [g] | % control (fasted C57BL/6 mice [4]; 300 minutes, 10 mg/kg) [%]
632 | CCCCCCCCCCCCCC(=O)N[C@H](C(=O)N1CCC[C@H]1C(=O)N[C@@H](CC(=O)O)C(=O)N[C@H](C(=O)N[C@@H](CC(N)=O)C(=O)N1CCC[C@H]1C(=O)N[C@@H](C)C(=O)N[C@@H](Cc1c[nH]c2ccccc12)C(=O)N[C@@H](Cc1ccc(O)cc1)C(=O)N[C@H](C(=O)NCC(=O)N[C@@H](CCCNC(=N)N)C(=O)NCC(=O)N[C@H](C(=O)N[C@@H](CCCNC(=N)N)C(=O)N1CCC[C@H]1C(=O)N[C@H](C(=O)NCC(=O)N[C@@H](CCCNC(=N)N)C(=O)N[C@@H](Cc1ccccc1)C(N)=O)C(C)C)[C@@H](C)CC)[C@@H](C)O)[C@@H](C)CC)[C@@H](C)O [Analog 10] (Myristoyl-TPDINPAWYTGRGIRPVGRF-NH2) | 0.28 | 51 | 1.1 | 86 | agonist | 0.11 | 32 | 44 |  |  |  |  |  |  |  |  | 
13 | CCCCCCCC(=O)NC[C@H](N)C(=O)N[C@@H](CCCNC(=N)N)C(=O)N[C@@H](C)C(=O)N[C@@H](Cc1c[nH]cn1)C(=O)N[C@@H](CCC(N)=O)C(=O)N[C@@H](Cc1c[nH]cn1)C(=O)N[C@@H](CO)C(=O)N[C@@H](CCCC)C(=O)N[C@@H](CCC(=O)O)C(=O)N[C@H](C(=O)N[C@@H](CCCNC(=N)N)C(=O)N[C@H](C(=O)N1CCC[C@H]1C(=O)N[C@@H](CC(=O)O)C(=O)N[C@H](C(=O)N[C@@H](CC(N)=O)C(=O)N1CCC[C@H]1C(=O)N[C@@H](C)C(=O)N[C@@H](Cc1c[nH]c2ccccc12)C(=O)N[C@@H](Cc1ccc(O)cc1)C(=O)N[C@H](C(=O)NCC(=O)N[C@@H](CCCNC(=N)N)C(=O)NCC(=O)N[C@H](C(=O)N[C@@H](CCCNC(=N)N)C(=O)N1CCC[C@H]1C(=O)N[C@H](C(=O)NCC(=O)N[C@@H](CCCNC(=N)N)C(=O)N[C@@H](Cc1cccc2ccccc12)C(N)=O)C(C)C)[C@@H](C)CC)[C@@H](C)O)[C@@H](C)CC)[C@@H](C)O)[C@@H](C)O [Analog 8] (H-[Dap](Octanoyl)RAHQHS[Nle]ETRTPDINPAWYTGRGIRPVGR[1Nal]-NH2) | 0.34 | 60 | 1.05 | 79 | agonist |  |  |  | 0.17 | 76 | 0.78 | 90 |  |  |  |  | 
167 | CCCCCCCCCCCCCC(=O)NC[C@H](N)C(=O)N[C@@H](CCCNC(=N)N)C(=O)N[C@@H](C)C(=O)N[C@@H](Cc1c[nH]cn1)C(=O)N[C@@H](CCC(N)=O)C(=O)N[C@@H](Cc1c[nH]cn1)C(=O)N[C@@H](CO)C(=O)N[C@@H](CCCC)C(=O)N[C@@H](CCC(=O)O)C(=O)N[C@H](C(=O)N[C@@H](CCCNC(=N)N)C(=O)N[C@H](C(=O)N1CCC[C@H]1C(=O)N[C@@H](CC(=O)O)C(=O)N[C@H](C(=O)N[C@@H](CC(N)=O)C(=O)N1CCC[C@H]1C(=O)N[C@@H](C)C(=O)N[C@@H](Cc1c[nH]c2ccccc12)C(=O)N[C@@H](Cc1ccc(O)cc1)C(=O)N[C@H](C(=O)NCC(=O)N[C@@H](CCCNC(=N)N)C(=O)NCC(=O)N[C@H](C(=O)N[C@@H](CCCNC(=N)N)C(=O)N1CCC[C@H]1C(=O)N[C@H](C(=O)NCC(=O)N[C@@H](CCCNC(=N)N)C(=O)N[C@@H](Cc1cccc2ccccc12)C(N)=O)C(C)C)[C@@H](C)CC)[C@@H](C)O)[C@@H](C)CC)[C@@H](C)O)[C@@H](C)O [Analog 9] (H-[Dap](Myristoyl)RAHQHS[Nle]ETRTPDINPAWYTGRGIRPVGR[1Nal]-NH2) | 0.28 | 51 | 1.03 | 78 | agonist |  |  |  |  |  |  |  | dose dependent | 0.01 | 2 | 0.22 | 25
